Test results as given in patent US20050152906A1, “Specific human antibodies” (priority 2003, published 2005).
Ends that are not written are not given here. * marks the point of attachment. SO3H = O=S(=O)(O)*

What was measured:
Storage stability = type: physicochemical; details: under argon at −20° C.
Description: After reaction with acetic acid, the resulting free base was isolated as its solid acetate salt followed by lyophilization. M-DNR-Ac is stable for at least 12 months under argon at −20° C.
The methanolic solution was evaporated to dryness under reduced pressure at 25° C., resulting in a red oily residue, which was dissolved in dry methanol. To this solution, dry ether was added and the precipitated red solid isolated by centrifugation. […] (6-Maleimidocaproyl)hydrazone of Morphlinyldaunorubicin acetate is stable for at least 4 months under argon at −20° C.

primary AML cells = test: Semisolid clonogenic assay, primary AML patient samples; type: cell-based, human
Description: 3.2 Cytotoxicity of Y1-IgGM-DNR Derivative (FIG. 12-14): The specific cytotoxic effect of Y1-drug conjugates was assessed in semisolid (METHOCULT™; StemCell Technologies Inc., Vancouver BC, Canada) clonogenic assays. Cells (CD34+ stem cells from cord blood or primary AML patient samples) were incubated with free or conjugated drugs at concentrations of up to 10^−6M for 1 hour at 37° C. The cells were washed, seeded in METHOCULT™ and grown for 10-12 days, after which colonies were counted. Bovine (b)-IgG-M-DNR was used as a non-specific conjugate control.

primary B-CLL cells [1] = test: CDC against mononuclear cells from B-CLL patients; type: cell-based, human; details: presence and absence of 25% of the patients' plasma
Description: For CDC experiments, mononuclear cells from B-CLL patients were separated on FICOLL®. Cells were incubated with or without Y1-IgG or control antibodies for 24 hours in the presence or absence of the patient's plasma. Apoptotic cells were then stained with Annexin-PI and analyzed by FACS.
Mononuclear cells from B-CLL patients were incubated with Y1-IgG, Rituximab or Campath® in the presence and absence of 25% of the patients' plasma. […] Neither Rituximab nor Y1-IgG induced cytotoxicity via complement fixation.

[2] = tested on: Y1-scFv binding to platelets; test: Y1-scFv platelet binding assay, inhibition by synthetic GPIb peptides
Description: Briefly, peptides were synthesized by solid phase methodology using an ABIMED AMS-422 multiple peptide synthesizer, and as required, tyrosine sulfate was incorporated using FMOC-Try sodium salt. Synthetic peptides were purified using a Lichrosorb RP-18 column. For the Y1-scFv platelet binding assay, a mixture of synthetic peptide (2.5, 25 or 200 μM) and Y1-scFv (10 μg) was incubated with […]. Following washing, platelets were incubated with R-phycoerythrin labeled-anti scFv, washed and analyzed by FACS.

primary B-CLL cells [3] = test: Y1-IgG-mediated ADCC by PBMC effector cells against primary B-CLL cells; type: cell-based
Description: For ADCC experiments, mononuclear effector and target cells were separated on FICOLL®. Target cells were then labeled with PKH26, which stably incorporates a fluorescent dye within the lipid regions of the cell membranes. Cells were then washed and incubated with effector cells at various Effector:Target (E:T) ratios, in the absence or presence of different concentrations of Y1-IgG or control antibodies for 24 hours. Dead cells were stained by TOPRO®(Molecular Probes, Inc., Eugene, Oreg.): and analyzed by FACS on gated target cells.
To determine if Y1-IgG mediates ADCC in primary B-CLL, B-CLL cells from different patients were co-incubated for 24 hours with PBMC effector cells at different effector/target cell ratios. […] Variation may be attributed to the effector cell samples obtained from different healthy donors, as well as to differences among the B-CLL samples.

[4] = target: PSGL-1 (P-Selectin Glycoprotein Ligand-1) (human) (UniProt Q14242); test: cell-based or functional assay
Sequence of UniProt Q14242 (Q14242 42-412): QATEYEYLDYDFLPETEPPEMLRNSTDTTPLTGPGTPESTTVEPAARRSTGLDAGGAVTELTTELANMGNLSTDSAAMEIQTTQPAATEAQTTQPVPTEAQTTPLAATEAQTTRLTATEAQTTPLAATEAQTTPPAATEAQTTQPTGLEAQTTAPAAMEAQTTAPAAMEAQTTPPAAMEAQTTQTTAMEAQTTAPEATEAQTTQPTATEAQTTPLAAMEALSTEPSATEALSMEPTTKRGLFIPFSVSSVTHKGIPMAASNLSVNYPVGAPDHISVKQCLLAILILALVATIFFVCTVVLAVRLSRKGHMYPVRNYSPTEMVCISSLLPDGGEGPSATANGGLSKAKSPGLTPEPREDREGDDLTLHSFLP

[5] = substitution mutant peptides based on DLY^SDYYPE (FIG. 17B), concentration not given

CC(=O)O.COc1cccc2c1C(=O)c1c(O)c3c(c(O)c1C2=O)C[C@@](O)(C(C)=NNC(=O)CCCCCN1C(=O)C=CC1=O)C[C@@H]3O[C@H]1C[C@H](N2CCOCC2)[C@H](O)[C@H](C)O1 [(6-Maleimidocaproyl)hydrazone of Morphlinyldaunorubicin acetate]
stable for (Storage stability): at least 4 months

COc1cccc2c1C(=O)c1c(O)c3c(c(O)c1C2=O)C[C@@](O)(C(C)=O)C[C@@H]3O[C@H]1C[C@H](N2CCOCC2)[C@H](O)[C@H](C)O1 [M-DNR, 3′-Deamino-3′-(4-morpholinyl)daunorubicin]
colony formation relative to control, AML-M4 cells (primary AML cells; 1 μM): did not give rise to colonies
colony formation relative to control, AML-M5 cells (primary AML cells; 1 μM): did not give rise to colonies
viability of primary AML cells relative to the control (primary AML cells; AML sample M7 megakaryocytic leukemia, 0.1 μM): 80%

CC(=O)O.COc1cccc2c1C(=O)c1c(O)c3c(c(O)c1C2=O)C[C@@](O)(C(C)=O)C[C@@H]3O[C@H]1C[C@H](N2CCOCC2)[C@H](O)[C@H](C)O1 [M-DNR-Ac, 3′-Deamino-3′-(4-morpholinyl)daunorubicin acetate]
stable for (Storage stability): at least 12 months

Campath®: commercially available humanized antibody which binds CD52
cytotoxicity via CDC (primary B-CLL cells [1]): mediated cytotoxicity of primary B-CLL cells via CDC

DAY^SDYYPE (DAY(SO3H)DYYPE) [Leu-275 replaced by Ala]
inhibition of Y1-scFv binding to platelets [2, 5]: inhibited Y1-scFv binding to platelets

DLEDYYPE [sulfated Tyr-276 replaced with Glu]
inhibition of Y1-scFv binding to platelets [2, 5]: no substantial inhibition

DLYDYYPE [non-sulfated control peptide]
inhibition of Y1-scFv binding to platelets ([2]; peptide 200 μM): no effect

DLYDYY^SPE (DLYDYYPE; not fully specified (residue 6)) [sulfated at the third tyrosine]
inhibition of Y1-scFv binding to platelets ([2]; peptide 200 μM): no effect

DLYDY^SY^SPE (DLYDY(SO3H)Y(SO3H)PE) [sulfated at the second and third tyrosines]
inhibition of Y1-scFv binding to platelets ([2]; peptide 200 μM): no effect

DLY^SAYYPE (DLY(SO3H)AYYPE) [Asp-277 replaced by Ala]
inhibition of Y1-scFv binding to platelets [2, 5]: substantially incapable of inhibiting

DLY^SDAYPE (DLY(SO3H)DAYPE) [substitution mutant peptide, amino acids 278 to 280]
inhibition of Y1-scFv binding to platelets [2, 5]: inhibited Y1-scFv binding to platelets

DLY^SDFYPE (DLY(SO3H)DFYPE) [substitution mutant peptide, amino acids 278 to 280]
inhibition of Y1-scFv binding to platelets [2, 5]: inhibited Y1-scFv binding to platelets

DLY^SDYYAE (DLY(SO3H)DYYAE) [substitution mutant peptide, amino acids 278 to 280]
inhibition of Y1-scFv binding to platelets [2, 5]: inhibited Y1-scFv binding to platelets

DLY^SDYYPA (DLY(SO3H)DYYPA) [substitution mutant peptide, amino acids 278 to 280]
inhibition of Y1-scFv binding to platelets [2, 5]: inhibited Y1-scFv binding to platelets

DLY^SDYYPE (DLY(SO3H)DYYPE) [sulfated at the first tyrosine]
inhibition of Y1-scFv binding to platelets ([2]; peptide 25 μM): effectively inhibited

DLY^SDYY^SPE (DLY(SO3H)DYY(SO3H)PE) [sulfated at the first and third tyrosines]
inhibition of Y1-scFv binding to platelets ([2]; peptide 25 μM): effectively inhibited

DLY^SDY^SYPE (DLY(SO3H)DY(SO3H)YPE) [sulfated at the first and second tyrosines]
inhibition of Y1-scFv binding to platelets ([2]; peptide 25 μM): effectively inhibited

DLY^SDY^SY^SPE (DLY(SO3H)DY(SO3H)Y(SO3H)PE) [GPIb-based peptide comprising 3 sulfated tyrosines]
inhibition of Y1-scFv binding to platelets ([2]; peptide 25 μM): effectively inhibited

DLY^SEYYPE (DLY(SO3H)EYYPE) [Asp-277 replaced by Glu]
inhibition of Y1-scFv binding to platelets [2, 5]: substantially incapable of inhibiting

DLY^SNYYPE (DLY(SO3H)NYYPE) [Asp-277 replaced by Asn]
inhibition of Y1-scFv binding to platelets [2, 5]: substantially incapable of inhibiting

Rituximab: commercially available humanized antibody which binds CD20
cytotoxicity via CDC (primary B-CLL cells [1]): Neither
concentration at which saturation of receptor molecules on the target cells was achieved (primary B-CLL cells [3]): not by the same concentration

mouse anti-PSGL-1 antibody KPL1
inhibition of ML2 cell rolling on rh-P-Selectin (1 µg/ml) at all shear forces [4]: 100%
